{"source": "patent US20240165112A1", "about": "“THERAPY FOR THE TREATMENT OF CANCER” (Bristol-Myers Squibb Company, priority 2022, published 2024)", "assay_type_in_all_cases": "cell-based", "key": {"[1]": {"test_system": "phospho-c-Jun in lung cancer-associated fibroblasts (CAF)", "experiment": "TGF-β-induced c-Jun phosphorylation (capillary western)", "details": "Homo sapiens, Fibroblast, 10 ng/mL TGF-β for 2 hours, western blot, read-out: EC50 on phospho-c-Jun levels", "protocol": "(§1) Normal human lung fibroblasts (NHLF, black circle) or lung cancer-associated fibroblasts (CAF, black square) were treated with 10 ng/mL TGF-β after 1 hour pre-incubation with a range of Compound 1 concentrations, and cells were lysed 2 hours later. Phospho-c-Jun levels were evaluated by western blot. Abbreviations: CAF, cancer-associated fibroblasts; NHLF, normal lung human fibroblasts; TGF-β, transforming growth factor beta.\n(§2) Normal human lung fibroblasts (NHLF) and lung cancer-associated fibroblasts (CAF) were maintained in their respective vendor recommended media. For the purposes of comparing the two cell lines, NHLF and lung CAF were both adapted to DMEM+10% fetal bovine serum (FBS) and to RPMI+10% FBS prior to use in the activation assay. Cells were seeded (150,000 NHLF and lung CAF cells) in 12 well plates and allowed to adhere overnight at 37° C., 5% CO2. The next day, cells were pre-treated for […] at 37° C. with DMSO or Compound 1 at 30 μM, 7.5 μM, 1.875 μM, 0.469 μM, 0.117 μM, 0.029 μM, and 0.007 μM. […]\n(§3) The levels of phospho-c-Jun in NHLF and non-small cell lung CAF in response to TGF-β in the presence of DMSO or varying concentrations of Compound 1 were summarized in FIG. 7. […] Phospho-c-Jun levels were determined by western blot analysis and were normalized to DMSO treated samples."}, "[2]": {"test_system": "phospho-c-Jun in normal human lung fibroblasts (NHLF)", "experiment": "TGF-β-induced c-Jun phosphorylation (capillary western)", "details": "Fibroblast, 10 ng/mL TGF-β for 2 hours, western blot, read-out: EC50 on phospho-c-Jun levels", "protocol": "as §1, §2, §3"}, "[3]": {"test_system": "TNC, ACTA2, PAI-1 transcripts in normal human lung fibroblasts (NHLF)", "experiment": "TGF-β-induced gene transcription, fibroblast activation markers (RT-PCR)", "protocol": "Normal human lung fibroblasts (NHLF, black bars) were treated with 10 ng/mL TGF-β after 1 hour pre-incubation with a range of Compound 1 concentrations, and cells were lysed 24 hours later. Indicated gene transcripts were assessed by RT-PCR relative to GAPDH. Data were normalized to expression after TGF-β treatment in the presence of only DMSO. Data are presented as mean of 3 biological replicates, and error bars indicate standard deviation. The graphs are representative of at least 2 independent experiments. *P<0.05; ** P<0.01, ***P<0.001; ****P<0.0001 by student's t-test. Abbreviations: ACTA2, smooth muscle actin; CAF, cancer associated fibroblasts; DMSO, dimethyl sulfoxide; GAPDH, glyceraldehyde-3-phosphate dehydrogenase; NHLF, normal lung human fibroblasts; PAI-1, plasminogen activator inhibitor 1; RNA, ribonucleic acid; RT-PCR, reverse transcription polymerase chain reaction; TGF-β, transforming growth factor beta; TNC, tenascin C.\nCells were seeded (75,000 NHLF and lung CAF cells) into 12 well plates with RPMI+10% FBS and allowed to adhere overnight at 37° C., 5% CO2. After one day of serum starvation, cells were pre-treated for 1 hour with DMSO or Compound 1 at 30 μM, 10 μM, 3 μM, 1 μM, or 0.3 μM and then stimulated with 10 ng/mL TGF-β. The 24-hour Compound 1 treated samples were harvested for ribonucleic acid (RNA) extraction.\nCells were directly lysed in Qiagen™ Buffer RLT Plus with 1% 2-Mercaptoethanol added. Total RNA from tumor samples and cell lines was isolated using Qiagen™ AllPrep® DNA/RNA 96 Kit according to manufacturer's protocol. Isolated RNA was analyzed with NanoDrop™ ONE Spectrophotometer for concentration. The RNA integrity was also analyzed on Agilent TapeStation 4200.\nComplimentary deoxyribonucleic acid (cDNA) was prepared by using Invitrogen™ SuperScript™ III First-Strand Synthesis SuperMix for qRT-PCR. Up to 1 μg of RNA was prepared according to manufacturer's protocol, using Applied Biosystems™ Veriti™ 96-well thermal cycler. The reverse transcription (RT) program used for cDNA synthesis: • 1. 25° C., 10 minutes • 2. 50° C., 30 minutes • 3. 85° C., 5 minutes • 4. Add E. Coli RNase H, 37° C., 20 minutes • 5. Hold at 4° C. Quantitative Reverse Transcription Polymerase Chain Reaction (qRT-PCR).\nThe cDNA was diluted 1:3 fold in nuclease-free water for quantitative polymerase chain reaction (qPCR) setup. Human and mouse TaqMan™ assays for targeted genes were ordered through Applied Biosystems™. TaqMan™ assay selection was based on manufacturer's recommendation. The qRT-PCR was set up using Applied Biosystems™ TaqMan™ Fast Advanced Master Mix according to manufacturer's protocol. The qRT-PCR was run on QuantStudio™ 12 Flex with fast run mode: • 1. 95° C., 20 seconds • 2. 95° C., 1 second • 3. 60° C., 20 seconds • 4. Repeat steps 2-3, 39 times\nThe qPCR data was analyzed, and all cycle threshold (Ct) values were normalized to glyceraldehyde-3-phosphate dehydrogenase (GAPDH) (ΔCt). Analysis was plotted and presented using GraphPad Prism (GraphPad, Version 8.4.1, San Diego, CA).\nThe levels of phospho-c-Jun in NHLF and non-small cell lung CAF in response to TGF-β in the presence of DMSO or varying concentrations of Compound 1 were summarized in FIG. 7. Cells were treated with DMSO or Compound 1 for 1 hour prior to treatment with 10 ng/mL TGF-β for an additional 2 hours. Phospho-c-Jun levels were determined by western blot analysis and were normalized to DMSO treated samples. […] The relative expression of fibroblast activation markers in NHLF and lung CAF in response to TGF-β in the presence of DMSO or varying concentrations of Compound 1 were summarized in FIGS. 8A-8C and FIGS. 9A-9C. Cells were treated with DMSO or Compound 1 for 2 hours prior to treatment with 10 ng/mL TGF-β. The RNA expression was assessed 24 hours after TGF-β treatment."}, "[4]": {"details": "NHLF stimulated with TGFβ, 10 μM Compound 1"}, "[5]": {"details": "NHLF, 30 μM Compound 1, 10 ng/mL TGF-β, 24 hours"}}}
{"smiles": "C[C@@H]1CC[C@@H](Nc2nc(NC(C)(C)C)ncc2C(N)=O)C[C@H]1O", "note": "[Compound 1, 2-(tert-butylamino)-4-((1R,3R,4R)-3-hydroxy-4-methylcyclohexylamino)-pyrimidine-5-carboxamide]", "values": [{"measurement": "EC50", "setting": "[1]", "value": 330, "unit": "nM"}, {"measurement": "EC50", "setting": "[2]", "value": 350, "unit": "nM"}, {"measurement": "ACTA2 reduced relative to DMSO", "setting": "[3]; [4]", "value": 4.1, "unit": "%"}, {"measurement": "TNC reduced relative to DMSO", "setting": "[3]; [4]", "value": 66, "unit": "%"}, {"measurement": "TNC induction, reduction from peak activation to baseline", "setting": "[3]; NHLF, 3 μM Compound 1, 10 ng/mL TGF-β, 24 hours", "value": 48, "unit": "%"}, {"measurement": "PAI-1 induction, reduction from peak activation to baseline", "setting": "[3]; NHLF, 10 μM Compound 1, 10 ng/mL TGF-β, 24 hours", "value": 20, "unit": "%"}, {"measurement": "ACTA2 induction, reduction from peak activation to baseline", "setting": "[3]; [5]", "value": 95, "unit": "%"}, {"measurement": "PAI-1 induction, reduction from peak activation relative to baseline", "setting": "[3]; [5]", "value": 57, "unit": "%"}, {"measurement": "TNC expression", "setting": "[3]; [5]", "value": "lower than samples that never received TGF-β"}]}
